Results taken from patent US8614333B2, “Acenaphtho heterocyclic compound and application thereof” (Dalian University of Technology, priority 2010, dated 2013).

What was measured:
Bcl-2 protein = Bcl-2 protein (Homo sapiens, UniProt P10415); assay: ELISA assay, competitive binding to Bcl-2 protein (biotin-Bim/streptavidin plate); conditions: method calculates average IC50, read-out: Bcl-2 binding constants
Description: (§1) The present inventors used fluorescence polarization assay to detect the bonding force between the protein and the compounds in a previous study (PCT/CN2010/075521). […] ELISA assay was used to detect the bonding force between the compounds and the protein in this application.
(§2) Biotinylated Bim peptide was diluted to 0.09 μg/mL in SuperBlock blocking buffer in PBS and incubated for 1.5 h in 96-well microtiter plates already coated with streptavidin to allow the formation of the complex between Biotin-Bim and streptavidin. All incubations were performed at room temperature unless otherwise noted. Each inhibitor was first dissolved in pure DMSO to obtain a 10 mM stock solution. For each tested inhibitor, different concentrations of the inhibitor were incubated with 20 nM His-tagged Mcl-1 protein in PBS for 1 h with a final DMSO concentration of 4%. The plates were washed three times with PBS containing 0.05% Tween-20. The inhibitor and protein mixture (100 μL) were transferred to the plate containing the biotin-Bim/streptavidin complex and incubated for 2 h. The plate was then washed as before and mouse anti-His antibody that conjugated with horseradish peroxidase was added into the wells and incubated for 1 h. The plate was then washed with PBS containing 0.05% Tween-20. Finally, TMB was added to each well; the enzymatic reaction was stopped after 30 min by addition of H2SO4 (100 μL, 2M). Absorbances were measured with a TECAN GENios (Swiss, TECAN) microplate reader using a wavelength of 450 nm. Three independent experiments were performed with each inhibitor to calculate average IC50 value and standard deviation (SD).
(§3) The BH3 analogous degrees of other 11 compounds were detected by using the experimental method as described above. The protein binding constant (binding constant in table 1) between them and Bcl-2 and Mcl-1 proteins were also on nM grade.

His-tagged Mcl-1 protein = His-tagged Mcl-1 protein (Homo sapiens, UniProt Q07820); assay: ELISA assay, competitive binding to Mcl-1 protein (biotin-Bim/streptavidin plate); conditions: 20 nM His-tagged Mcl-1, method calculates average IC50, read-out: Mcl-1 binding constants
Sequence of His-tagged Mcl-1 protein (Q07820 whole entry): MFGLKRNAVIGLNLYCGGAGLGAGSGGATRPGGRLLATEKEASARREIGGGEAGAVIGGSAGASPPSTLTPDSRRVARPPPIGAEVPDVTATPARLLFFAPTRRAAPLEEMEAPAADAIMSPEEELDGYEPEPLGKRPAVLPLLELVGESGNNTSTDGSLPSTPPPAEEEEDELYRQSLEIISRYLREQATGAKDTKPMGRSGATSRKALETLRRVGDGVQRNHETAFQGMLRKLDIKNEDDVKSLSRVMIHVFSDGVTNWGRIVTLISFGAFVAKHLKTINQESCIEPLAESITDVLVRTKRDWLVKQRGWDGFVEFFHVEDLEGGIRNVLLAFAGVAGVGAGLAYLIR
Description: as §1, §2, §3

[1] = molecular target: T1, interaction between Bcl-2 and Bax (Homo sapiens, UniProt P10415); assay: Intracellular FRET, Bcl-2-CFP/Bax-YFP in Hela cells; assay type: cell-based; conditions: for Time (time period after which the interaction between Bcl-2 and Bax was interfered): at the concentration given
T1 construct: expressed in transfected cells; host or cells: Hela cells
T1 sequence (P10415 whole entry): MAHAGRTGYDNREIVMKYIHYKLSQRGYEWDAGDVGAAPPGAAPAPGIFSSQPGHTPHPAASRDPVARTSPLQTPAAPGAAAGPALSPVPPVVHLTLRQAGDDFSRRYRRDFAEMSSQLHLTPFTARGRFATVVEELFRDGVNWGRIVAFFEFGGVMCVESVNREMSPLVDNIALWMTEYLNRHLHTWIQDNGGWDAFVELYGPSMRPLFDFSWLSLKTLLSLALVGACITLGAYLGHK
Description: 2 μg of Bcl-2-CFP and Bax-YFP plasmids were transfected separately or simultaneously into Hela cells by using calcium phosphate coprecipitation method, 24 hours later, the cells were inoculated in a 6-well plate (2×10^5 cells/well), and the compound 1 to be detected dissolved in DMSO was added there into until the final concentration (2, 5, 10 and 15 μM) was achieved. 24 hours later (please refer to FIG. 5); the cells were washed with PBS for three times. The fluorescence value was detected by GENIOS fluorescence enzyme-labelled meter (TECAN, Swiss). In time-dependent experiment, the transfected cells were inoculated in a 6-well plate, after that, 40 μM of the compound was added thereinto. 3, 6 and 24 hours later (FIG. 6), the fluorescence intensities were detected by plate reader. As for the cell group in which only Bcl-2-CFP plasmid was transfected, the values at 475 nm emission wave length and 433 nm excitation wave length were recorded. As for the cell group in which only Bax-YFP plasmid was transfected, the values at 527 nm emission wave length and 505 nm excitation wave length were recorded. As for the cell group in which Bcl-2-CFP and Bax-YFP plasmids were co-transfected, the values at 527 nm and 475 emission wave lengths and 433 nm excitation wave length were recorded. The ratio of fluorescence intensity at 527 nm and 475 nm emission wave lengths was FRET. The FRET for the control group in which the plasmid was solely transfected was set as 1.0. […] In the cotransfected cells, the FRET increased up to 2.0 due to the interaction of Bcl-2 protein and Bax protein, and that the interference to the interaction between the two proteins increased and FRET decreased with the increase of the drug concentration and time. The cellular vitality was detected by MTT method. When the concentration of the compound reached 1 μM, the interaction between Bcl-2 and Bax can be interfered after 2 hours, and the results appeared concentration-time dependent trend.
Wherein the concentration and time meant that the detected compound interfered with the interaction between Bcl-2 and Bax at the concentration for the time period.

[2] = test system: BAX shift towards the chondriosome; assay: Co-localization between Bax protein and chondriosome, Bax-YFP in MCF-7 cells; assay type: cell-based; conditions: for Doses (concentration at which the compound drove the BAX to shift towards the chondriosome): Bax-YFP/Mito Tracker Red; for Time (time period after which BAX shifted towards the chondriosome): at the concentration given
Description: 5 μg of Bax-YFP plasmid was transfected into MCF-7 cells by using calcium phosphate coprecipitation method, 24 hours later, the cells were inoculated in a 6-well plate (0.2×10^6 cells/well), and 10 μM of the compound 1 to be detected was added thereinto. 6 hours later, the cells were washed with PBS and hatched away from light with 50 nM Mito Tracker Red CMXRos (chondriosome specific probes; red) for 10 minutes. Then the cells were washed with PBS for three times, and the fluorescent image was scanned with Radiance2000 laser confocal microscopy (Bio-Rad, USA). Meanwhile, dual channel scanning was carried out, one channel was used to scan the green fluorescence of Bax-YFP, and the other channel was used to scan the red fluorescence of the CMXRos probe for indicating the chondriosome. […] When the Bax protein was localized on the chondriosome, the green and red fluorescence was superimposed into orange, as shown in FIG. 7.
Other 24 compounds were detected by the same experimental method as described above. […] Wherein the concentration and time meant that the detected compound simulated the BH3-only protein and driven the BAX to shift towards the chondriosome at the concentration for the time period.

MCF-7 cells = assay: Cytotoxicity by MTT, cells without plasmid transfection; assay type: cell-based; conditions: Homo sapiens, MCF7; MCF-7, MTT, 48 hours; read-out: IC50 value in untransfected cells
Description: (§4) 3 μg of BAX/BAK interfering plasmid was transfected into MCF-7 cells by using calcium phosphate coprecipitation method, 24 hours later, the cells were collected. The expressions after the BAX and BAK proteins interfered with RNA was detected by Western, and the cell groups without plasmid transfection were treated similarly and were set as the control group. The transfected cells were inoculated in a 96-well plate (1×10^5 cells/well), the control experiment of the cell group without plasmid transfection was carried out in parallel. The compound 1 to be detected was added thereinto according to the concentration gradient designed before the experiment. 48 hours later, the cellular vitality was detected by MTT. The experimental results were shown in FIG. 9, Gossypol as nonspecific BH3 analogue was treated in parallel.
(§5) Other 24 compounds were also detected by the same experimental method as described above, the differences of IC50 values between the transfected cells and the without plasmid transfection cells were compared.

[3] = test system: MCF-7 cells transfected with BAX/BAK interfering plasmid; assay: Cytotoxicity by MTT, cells transfected with BAX/BAK interfering plasmid; assay type: cell-based; conditions: Homo sapiens, MCF7; MCF-7 with BAX/BAK interfering plasmid, MTT, 48 hours
Description: as §4, §5

Bcl-2 = assay: Western blotting, semiquantitative analysis of Bcl-2 protein bands; assay type: cell-based; conditions: control = 1, tumor cells
Description: (§6) The interest protein was detected by the corresponding antibody. The expression of the interest protein in the cells was detected by horseradish peroxidase-labeled secondary antibodies in combination with ECL coloration method. […] The concentration of the protein bands in the Western images were carried out semiquantitative analysis and normalization treatment with KODAK Gel Logic 1500 imaging system software.

Mcl-1 = assay: Western blotting, semiquantitative analysis of Mcl-1 protein bands; assay type: cell-based; conditions: control = 1, tumor cells
Description: as §6

GST-Bcl-2 protein = GST-Bcl-2 protein (Homo sapiens, UniProt P10415); assay: Fluorescence polarization assay, competition with FAM-Bid peptide for Bcl-2; conditions: GST-Bcl-2 40 nM, FAM-Bid 5 nM, 4 hours of incubation, read-out: Bcl-2 binding constants
Sequence of GST-Bcl-2 protein (P10415 whole entry): as above
Description: (§7) A Bid BH3 peptide (amino acids: 79-99: […]) having 21 amino acids was synthesized and marked with 6-carboxyfluorescein N-succinimidyl ester (FAM) as fluorescent tag (FAM-Bid) at the N-terminal. The reaction system used in the competitive binding experiment was GST-Bcl-2 protein (40 nM) or Mcl-1 protein, which was dissolved in the reaction buffer (100 mM K3PO4, pH 7.5; 100 μg/ml bovine γ albumin; 0.02% sodium azide) together with FAM-Bid polypeptide (5 nM). In a 96-well plate, 100 µL of the reaction system was added into each well. Then 1 μL different concentration of compound 13 mother solution to be detected dissolved in DMSO was added there into until the final concentration met the experimental design requirements. Meanwhile, two control groups were established, one with the reaction system only containing Bcl-2 or Mcl-1 and FAM-Bid (equivalent to 0% inhibition rate), the other with the reaction system only containing FAM-Bid peptide. After 4 hours of incubation, the 96-well plate was detected by enzyme-labelled meter. The fluorescent polarization value (mP) was tested at […]. Ki value was deduced according to calculation formula.
(§8) The BH3 analogous degrees of other 12 compounds were detected by using the experimental method as described above.

Mcl-1 protein = Mcl-1 protein (Homo sapiens, UniProt Q07820); assay: Fluorescence polarization assay, competition with FAM-Bid peptide for Mcl-1; conditions: FAM-Bid 5 nM, 4 hours of incubation, read-out: Mcl-1 binding constants
Sequence of Mcl-1 protein (Q07820 whole entry, species assumed): as the sequence (Q07820 whole entry) above
Description: as §7, §8

Sequence of Bcl-2 protein (P10415 whole entry, species assumed): as the sequence (P10415 whole entry) above

| Compound | Doses (concentration at which the compound interfered with the interaction between Bcl-2 and Bax) [1] [µM] | Time (time period after which the interaction between Bcl-2 and Bax was interfered) [1] [h] | Ki (GST-Bcl-2 protein) [µM] | Ki (Mcl-1 protein) [µM] | IC50 (Bcl-2 protein) [µM] | IC50 (His-tagged Mcl-1 protein) [µM] | Doses (concentration at which the compound drove the BAX to shift towards the chondriosome) [2] [µM] | Time (time period after which BAX shifted towards the chondriosome) [2] [h] | IC50 (MCF-7 cells) [µM] | IC50 [3] [µM] | concentration of the protein bands (semiquantitative, normalized), Bcl-2 (Bcl-2; 6 h) | concentration of the protein bands (semiquantitative, normalized), Bcl-2 (Bcl-2; 12 h) | concentration of the protein bands (semiquantitative, normalized), Bcl-2 (Bcl-2; 18 h) | concentration of the protein bands (semiquantitative, normalized), Bcl-2 (Bcl-2; 24 h) | concentration of the protein bands (semiquantitative, normalized), Mcl-1 (Mcl-1; 2 h) | concentration of the protein bands (semiquantitative, normalized), Mcl-1 (Mcl-1; 6 h) | melting point [°C] |
| --- | --- | --- | --- | --- | --- | --- | --- | --- | --- | --- | --- | --- | --- | --- | --- | --- | --- |
| CC(C)c1ccc(Oc2ccc3c4c(cccc24)C2=NC(=O)C(NCCCc4ccccc4)=C23)cc1 [Compound 12, 3-(4-Isopropyl-phenoxy)-9-(3-phenyl-propylamino)-acenaphtho[1,2-b]pyrrol-8-one] | 0.2 | 1 | – | – | 0.009 | 0.015 | 0.3 | 2 | 2.9 | > 50 | 0.99 | 0.99 | 0.45 | 0.16 | 0.66 | 0.28 | 275 to 276 |
| CC(C)Cc1ccc(Oc2ccc3c4c(cccc24)C2=NC(=O)C(C#N)=C23)cc1 [Compound 15, 3-(4-Isobutyl-phenoxy)-8-oxo-8H-acenaphtho[1,2-b]pyrrole-9-carbonitrile] | 0.5 | 4 | 0.14 | 0.012 | – | – | 5.0 | 3 | 7.1 | > 50 | 0.99 | 0.99 | 0.39 | 0.12 | 0.69 | 0.42 | – |
| CC(C)Cc1ccc(Oc2ccc3c4c(cccc24)C2=C(C#N)C(=O)N=C23)cc1 [Compound 16, 4-(4-Isobutyl-phenoxy)-8-oxo-8H-acenaphtho[1,2-b]pyrrole-9-carbonitrile] | 0.5 | 3 | 0.21 | 0.056 | – | – | 4.0 | 3 | 8.5 | > 50 | – | – | – | – | – | – | – |

Further compounds by falling Ki (GST-Bcl-2 protein), results first:

| Doses (concentration at which the compound interfered with the interaction between Bcl-2 and Bax) [1] [µM] | Time (time period after which the interaction between Bcl-2 and Bax was interfered) [1] [h] | Ki (GST-Bcl-2 protein) [µM] | Ki (Mcl-1 protein) [µM] | Compound | IC50 (Bcl-2 protein) [µM] | IC50 (His-tagged Mcl-1 protein) [µM] | Doses (concentration at which the compound drove the BAX to shift towards the chondriosome) [2] [µM] | Time (time period after which BAX shifted towards the chondriosome) [2] [h] | IC50 (MCF-7 cells) [µM] | IC50 [3] [µM] | concentration of the protein bands (semiquantitative, normalized), Bcl-2 (Bcl-2; 6 h) | concentration of the protein bands (semiquantitative, normalized), Bcl-2 (Bcl-2; 12 h) | concentration of the protein bands (semiquantitative, normalized), Bcl-2 (Bcl-2; 18 h) | concentration of the protein bands (semiquantitative, normalized), Bcl-2 (Bcl-2; 24 h) | concentration of the protein bands (semiquantitative, normalized), Mcl-1 (Mcl-1; 2 h) | concentration of the protein bands (semiquantitative, normalized), Mcl-1 (Mcl-1; 6 h) | melting point [°C] |
| --- | --- | --- | --- | --- | --- | --- | --- | --- | --- | --- | --- | --- | --- | --- | --- | --- | --- |
| 0.6 | 4 | 0.115 | 0.135 | N#CC1=C2C(=NC1=O)c1ccc(C(=O)c3ccc(CN)cc3)c3cccc2c13 [Compound 25, 4-(4-Aminomethyl-benzoyl)-8-oxo-8H-acenaphtho[1,2-b]pyrrole-9-carbonitrile] | – | – | 6.0 | 4 | 6.5 | > 50 | – | – | – | – | – | – | – |
| 0.5 | 5 | 0.105 | 0.085 | CCCCCCOc1ccc2c3c(cccc13)C1=NC(=O)C(C(=O)O)=C12 [Compound 26, 3-Hexyloxy-8-oxo-8H-acenaphtho[1,2-b]pyrrole-9-carboxylic acid] | – | – | 5.0 | 5 | 6.2 | > 50 | – | – | – | – | – | – | – |
| 0.3 | 3 | 0.023 | 0.085 | CC(C)Cc1ccc(Sc2ccc3c4c(cccc24)C2=C(C#N)C(=O)N=C23)cc1 [Compound 19, 4-(4-Isobutyl-phenylsulfanyl)-8-oxo-8H-acenaphtho[1,2-b]pyrrole-9-carbonitrile] | – | – | 3.0 | 3 | 2.2 | > 50 | – | – | – | – | – | – | – |
